Assay [1] deals with T1, extended human kinome (kinase-like proteins) (Homo sapiens, UniProt P54886).
T1 sequence (P54886 1-795): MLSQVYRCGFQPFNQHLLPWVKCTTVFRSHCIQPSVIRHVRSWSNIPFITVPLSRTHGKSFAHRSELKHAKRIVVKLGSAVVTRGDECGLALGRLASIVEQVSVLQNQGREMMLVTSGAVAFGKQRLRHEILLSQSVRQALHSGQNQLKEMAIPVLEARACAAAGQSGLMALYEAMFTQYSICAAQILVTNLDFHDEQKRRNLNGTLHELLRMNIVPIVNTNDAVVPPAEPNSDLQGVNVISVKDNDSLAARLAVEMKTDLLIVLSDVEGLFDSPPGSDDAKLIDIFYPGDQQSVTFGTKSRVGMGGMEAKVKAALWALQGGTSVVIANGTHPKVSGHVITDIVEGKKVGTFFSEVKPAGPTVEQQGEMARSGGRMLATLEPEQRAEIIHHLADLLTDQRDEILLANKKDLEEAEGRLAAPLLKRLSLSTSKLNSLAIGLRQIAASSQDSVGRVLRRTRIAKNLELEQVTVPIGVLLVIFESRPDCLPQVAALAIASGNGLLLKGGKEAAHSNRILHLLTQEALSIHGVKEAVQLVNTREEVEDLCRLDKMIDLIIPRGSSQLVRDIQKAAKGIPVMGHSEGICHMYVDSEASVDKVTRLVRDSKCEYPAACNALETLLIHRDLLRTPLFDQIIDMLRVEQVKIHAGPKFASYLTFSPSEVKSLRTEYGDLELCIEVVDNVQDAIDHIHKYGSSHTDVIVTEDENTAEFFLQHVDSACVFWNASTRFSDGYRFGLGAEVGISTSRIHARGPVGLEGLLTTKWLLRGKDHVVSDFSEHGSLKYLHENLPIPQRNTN
The experiment in a line: Whole cell quantitative proteomics: extended kinome hits. Particulars: Accession P54886.

For assay [2], the target named is T2, protein kinases (human kinome) (Homo sapiens, UniProt Q9NYY8).
T2 sequence (Q9NYY8 1-710): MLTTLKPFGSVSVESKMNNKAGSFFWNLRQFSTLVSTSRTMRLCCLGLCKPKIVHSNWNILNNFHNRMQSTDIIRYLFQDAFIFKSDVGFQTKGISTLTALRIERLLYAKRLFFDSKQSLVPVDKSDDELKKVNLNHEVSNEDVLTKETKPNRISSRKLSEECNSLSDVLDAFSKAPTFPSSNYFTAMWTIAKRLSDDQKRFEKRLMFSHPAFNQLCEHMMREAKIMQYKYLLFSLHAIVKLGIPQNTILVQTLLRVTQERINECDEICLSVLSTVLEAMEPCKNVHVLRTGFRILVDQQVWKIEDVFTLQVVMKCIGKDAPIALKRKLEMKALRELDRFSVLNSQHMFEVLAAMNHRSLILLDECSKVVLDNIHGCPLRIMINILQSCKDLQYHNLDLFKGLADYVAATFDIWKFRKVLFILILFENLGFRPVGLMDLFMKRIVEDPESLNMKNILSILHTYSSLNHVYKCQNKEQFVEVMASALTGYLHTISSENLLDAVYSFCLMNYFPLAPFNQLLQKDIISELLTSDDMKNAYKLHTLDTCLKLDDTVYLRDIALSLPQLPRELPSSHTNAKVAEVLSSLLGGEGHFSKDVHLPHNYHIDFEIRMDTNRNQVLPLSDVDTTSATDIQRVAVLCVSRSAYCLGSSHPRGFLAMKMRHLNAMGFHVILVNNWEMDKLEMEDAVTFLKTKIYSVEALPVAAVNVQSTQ
The assay is classed as cell-based. To be noted: direction down.

In assay [3] the target is protein kinases (human kinome) (Homo sapiens, UniProt Q15119). It is filed as cell-based. To be noted: for logFC PDK2: Accession Q15119-1.
Assay [4] deals with protein kinases (human kinome) (Homo sapiens, UniProt P53671). It is filed as cell-based. Particulars: experiment wp137.
Chain of protein kinases (human kinome) (Homo sapiens, UniProt P53671) (P53671 whole entry): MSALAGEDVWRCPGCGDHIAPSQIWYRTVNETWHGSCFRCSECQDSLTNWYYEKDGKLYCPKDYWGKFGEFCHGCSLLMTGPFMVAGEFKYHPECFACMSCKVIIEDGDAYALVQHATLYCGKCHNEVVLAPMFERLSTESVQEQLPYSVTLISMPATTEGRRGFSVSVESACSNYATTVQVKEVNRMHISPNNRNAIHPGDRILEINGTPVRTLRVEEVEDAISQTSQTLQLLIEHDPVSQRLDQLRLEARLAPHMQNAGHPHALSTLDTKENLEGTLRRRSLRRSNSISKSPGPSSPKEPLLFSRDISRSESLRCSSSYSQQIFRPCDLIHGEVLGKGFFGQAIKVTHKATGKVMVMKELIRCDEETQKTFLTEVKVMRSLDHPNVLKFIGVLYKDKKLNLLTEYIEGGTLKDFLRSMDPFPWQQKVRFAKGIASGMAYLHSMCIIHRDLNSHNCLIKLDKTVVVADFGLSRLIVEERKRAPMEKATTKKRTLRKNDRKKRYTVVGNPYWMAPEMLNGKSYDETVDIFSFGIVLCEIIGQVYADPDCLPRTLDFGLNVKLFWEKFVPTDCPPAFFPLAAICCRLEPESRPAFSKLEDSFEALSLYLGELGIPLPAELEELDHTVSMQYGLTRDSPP

Like-named read-outs stand apart in the source and are kept apart here.

In the case of `CC(C)(C)c1nc(-c2cccc(NS(=O)(=O)c3c(F)cccc3F)c2F)c(-c2ccnc(NCCOCCNC(=O)CCOCCOCCNc3cccc4c3CN(C3CCC(=O)NC3=O)C4=O)n2)s1` (stereo not shown) [DD.03.107], the “logFC ALDH18A1” value in assay [1] (experiment wp147, 1 uM) is reported as −0.6536; in assay [1] (experiment wp147, 2 uM), −0.7374; in assay [1] (experiment wp147, 4 uM), −1.326. Also, the “logFC FASTKD2 (Q9NYY8)” value in assay [2] (Experiment wp147, 1 uM) is given as −0.7236; in assay [2] (Experiment wp147, 2 uM), −0.6784; in assay [2] (Experiment wp147, 4 uM) it was −1.273. The “logFC PDK2” value is reported as −0.3383 in assay [3] (experiment wp137); −0.4963 in assay [3] (experiment wp147, 1 uM); −0.5351 in assay [3] (experiment wp147, 2 uM); −0.9269 in assay [3] (experiment wp147, 4 uM). The “logFC PDK2 (Q15119-1)” value in assay [3] (experiment wp137) is reported as −0.3383; in assay [3] (experiment wp147, 1 uM), −0.4963; in assay [3] (experiment wp147, 2 uM), −0.5351; in assay [3] (experiment wp147, 4 uM) it was −0.9269.

For `CC(C)(C)c1nc(-c2cccc(NS(=O)(=O)c3c(F)cccc3F)c2F)c(-c2ccnc(NCCOCCNC(=O)CCOCCOCCNc3cccc4c3C(=O)N(C3CCC(=O)NC3=O)C4=O)n2)s1` (stereo not shown) [DD.03.106], the “logFC ALDH18A1” value in assay [1] (experiment wp147, 1 uM) was −0.3463; in assay [1] (experiment wp147, 4 uM) it was −0.8823. In addition, the “logFC FASTKD2 (Q9NYY8)” value is listed as −0.3392 in assay [2] (Experiment wp147, 2 uM) and −0.9073 in assay [2] (Experiment wp147, 4 uM). In addition, in assay [4] (LIMK2 (P53671), down), the “logFC LIMK2” value is listed as −1.026. For the same compound, in assay [4] (LIMK2 P53671), the “logFC of LIMK2” value was −1.026. The “logFC PDK2 (Q15119-1)” value in assay [3] (experiment wp147, 4 uM) is −0.727.

Regarding `CN(C)C(=O)c1cc2cnc(Nc3ccc(N4CCN(CCCCNC(=O)COc5cccc6c5C(=O)N(C5CCC(=O)NC5=O)C6=O)CC4)cn3)nc2n1C1CCCC1` (stereo not shown) [BSJ.04.132], the “logFC ALDH18A1” value in assay [1] (experiment wp084) was −0.6568. For the same compound, the “logFC FASTKD2 (Q9NYY8)” value in assay [2] (Experiment wp084) was −0.5107. In addition, in assay [3] (experiment wp084), the “logFC PDK2” value is −0.5289 and the “logFC PDK2 (Q15119-1)” value is on record as −0.5289.

As to `O=C(COc1cccc2c1C(=O)N(C1CCC(=O)NC1=O)C2=O)NCCCCCCCC(=O)NC1(c2ccc(-c3nc4ccn5c(=O)[nH]nc5c4cc3-c3ccccc3)cc2)CCC1` (stereo not shown) [INY.01.140.1], in assay [1] (experiment wp081), the “logFC ALDH18A1” value is recorded as −0.4491. Moreover, the “logFC FASTKD2 (Q9NYY8)” value in assay [2] (Experiment wp081) was −0.4053. In addition, in assay [3] (experiment wp081), the “logFC PDK2” value was −0.6094 and the “logFC PDK2 (Q15119-1)” value is −0.6094.

`Cc1ccc(C(=O)Nc2ccc(CN3CCN(CCCOCCOCCOCCNC(=O)COc4cccc5c4C(=O)N(C4CCC(=O)NC4=O)C5=O)CC3)c(C(F)(F)F)c2)cc1C#Cc1cnc2cccnn12` (stereo not shown) [SB1.G.187]: the “logFC ALDH18A1” value in assay [1] (experiment wp056) is −0.4458. Besides, the “logFC FASTKD2 (Q9NYY8)” value in assay [2] (Experiment wp056) is reported as −0.3881. In addition, in assay [3] (experiment wp056), the “logFC PDK2” value was −0.4016 and the “logFC PDK2 (Q15119-1)” value is reported as −0.4016.

Turning to `C=CCn1c(=O)c2cnc(Nc3ccc(N4CCN(CCCNc5cccc6c5C(=O)N(C5CCC(=O)NC5=O)C6=O)CC4)cc3)nc2n1-c1cccc(C(C)(C)O)n1` (stereo not shown) [ZNL.02.096], the “logFC ALDH18A1” value in assay [1] (experiment wp118) is reported as −0.4405. Also, in assay [2] (Experiment wp118), the “logFC FASTKD2 (Q9NYY8)” value is −0.4605. Moreover, the “logFC PDK2” value was −0.5561 in assay [3] (experiment wp056) and −0.37 in assay [3] (experiment wp118). Besides, the figures for the “logFC PDK2 (Q15119-1)” value in assay [3] (experiment wp056) and in assay [3] (experiment wp118) were −0.5561 and −0.37, respectively.

With `CC(=O)c1c(C)c2cnc(Nc3ccc(N4CCN(CCOCCOCCOCCNC(=O)COc5cccc6c5C(=O)N(C5CCC(=O)NC5=O)C6=O)CC4)cn3)nc2n(C2CCCC2)c1=O` (stereo not shown) [BSJ.03.123], the “logFC ALDH18A1” value in assay [1] (experiment wp084) is on record as −0.5282. The “logFC FASTKD2 (Q9NYY8)” value in assay [2] (Experiment wp084) is listed as −0.51. Moreover, in assay [3] (experiment wp084), the “logFC PDK2” value is listed as −0.3615 and the “logFC PDK2 (Q15119-1)” value is listed as −0.3615.

The record behind these values is US20240269139A1, “COMPOUNDS FOR TARGETED PROTEIN DEGRADATION OF KINASES” (DANA-FARBER CANCER INSTITUTE, INC., priority 2020, published 2024).
